In ChEMBL document CHEMBL5727751, “Use of aza-tryptanthrin derivatives as inhibitors of IDO1 and/or TDO” (2020):

Target: Indoleamine 2,3-dioxygenase 1 (Homo sapiens, UniProt P14902)
Test: Indoleamine-2,3-Dioxygenase 1 Inhibitory Activity: Experimental method: IDO-1 can oxidatively cleave the indole ring of tryptophan to form N-formylkynurenine. Referring to the method in the literature (Eddy W. Yue, et al. J. Med. Chem. 2009, 52, 7364-7367), 20 nM IDO-1, 2 mM D-tryptophan, 20 mM ascorbic acid, 3.5M methyl blue and 0.2 mg/mL antioxidant enzyme were sequentially added to 50 mM potassium phosphate buffer at room temperature. Due to the formation of N-formylkynurenine, the reaction rate was recorded by the increasing absorbance of the solution at 321 nm. IC50 values were calculated using Prism GraphPad software.

Indoleamine 2,3-dioxygenase 1, sequence (P14902 whole entry): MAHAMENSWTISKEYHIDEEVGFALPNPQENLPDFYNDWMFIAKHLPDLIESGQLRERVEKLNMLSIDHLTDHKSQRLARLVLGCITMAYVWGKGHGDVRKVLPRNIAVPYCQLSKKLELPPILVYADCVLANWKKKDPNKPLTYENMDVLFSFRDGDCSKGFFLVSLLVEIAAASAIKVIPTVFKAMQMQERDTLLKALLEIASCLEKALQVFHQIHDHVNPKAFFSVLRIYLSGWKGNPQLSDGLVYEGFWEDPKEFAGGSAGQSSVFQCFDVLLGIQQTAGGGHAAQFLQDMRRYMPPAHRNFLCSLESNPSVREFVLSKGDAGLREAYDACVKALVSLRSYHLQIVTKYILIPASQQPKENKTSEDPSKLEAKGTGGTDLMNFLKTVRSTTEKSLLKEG

| Compound | IC50 [µM] |
| --- | --- |
| CN(C)C(=S)NN=C1c2cc([N+](=O)[O-])ccc2-n2c1nc1ncccc1c2=O | 0.001 to 0.1 |
| O=C1c2cc([N+](=O)[O-])ccc2-n2c1nc1ncccc1c2=O | 0.001 to 0.1 |
| CN(C)CCON=C1c2cc([N+](=O)[O-])ccc2-n2c1nc1ncccc1c2=O | 0.001 to 0.1 |
| N=C(N)NN=C1c2cc([N+](=O)[O-])ccc2-n2c1nc1ncccc1c2=O | 0.001 to 0.1 |

Next, values leading:

| IC50 [µM] | Compound |
| --- | --- |
| 0.001 to 0.1 | O=C1c2cc(Cl)ccc2-n2c1nc1ncccc1c2=O |
| 0.001 to 0.1 | O=C1c2cnccc2-n2c1nc1ncccc1c2=O |
| 0.001 to 0.1 | NC(=S)NN=C1c2cc([N+](=O)[O-])ccc2-n2c1nc1ncccc1c2=O |
| 0.001 to 0.1 | O=C1c2cc(OC(F)(F)F)ccc2-n2c1nc1ncccc1c2=O |
| 0.001 to 0.1 | O=C1c2cc(F)ccc2-n2c1nc1ncccc1c2=O |
